Experimental data reported in the supplement of paper PMC10307832.

Tests used:
Assay in all cases: relative viability (nuclei count vs DMSO), 5 days (fraction); higher = more cells survive
SK-MES-1 = system: SK-MES-1
Summary of the method: (§1)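 Lung cancer cell lines were seeded in 1536-well plates and dosed by pin tool the next day, with either a single drug or a fixed anchor-drug dose combined with five library-drug doses (not always all listed) spaced in √10 steps. Five days later, one step fixed the cells and stained their nuclei (final 0.05% Triton X-100, 1% formaldehyde, 1 ug/ml Hoechst), and nuclei were counted on 4× images. Relative viability is the nuclei count in treated wells divided by the count in vehicle wells, and each value is the median of duplicate plates.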

SK-LU-1 = system: SK-LU-1
Summary of the method: as §1

HCC-366 = system: HCC-366
Summary of the method: as §1

NCI-H2228 = system: NCI-H2228
Summary of the method: as §1

NCI-H2347 = system: NCI-H2347
Summary of the method: as §1

NCI-H2170 = system: NCI-H2170
Summary of the method: as §1

NCI-H650 = system: NCI-H650
Summary of the method: as §1

RERF-LC-KJ = system: RERF-LC-KJ
Summary of the method: as §1

NCI-H1915 = system: NCI-H1915
Summary of the method: as §1

LC-2-ad = system: LC-2-ad
Summary of the method: as §1

NCI-H1975 = system: NCI-H1975
Summary of the method: as §1

LCLC-103H = system: LCLC-103H
Summary of the method: as §1

A-427 = system: A-427
Summary of the method: as §1

NCI-H23 = system: NCI-H23
Summary of the method: as §1

NCI-H1355 = system: NCI-H1355
Summary of the method: as §1

SW 1573 = system: SW 1573
Summary of the method: as §1

NCI-H1755 = system: NCI-H1755
Summary of the method: as §1

UMC-11 = system: UMC-11
Summary of the method: as §1

HCC-827 = system: HCC-827
Summary of the method: as §1

NCI-H1734 = system: NCI-H1734
Summary of the method: as §1

NCI-H1993 = system: NCI-H1993
Summary of the method: as §1

NCI-H1792 = system: NCI-H1792
Summary of the method: as §1

Structure (SMILES): Cc1csc(=NC2CCCCC2)n1/N=C/c1ccc(O)c(O)c1O [MIM1] + CS(=O)(=O)N1CCN(Cc2cc3nc(-c4cccc5[nH]ncc45)nc(N4CCOCC4)c3s2)CC1 [Pictilisib] (partner 1 µM)
- relative viability (SK-MES-1; first compound 0.2 µM): 0.358
- relative viability (SK-MES-1; first compound 0.6325 µM): 0.346
- relative viability (SK-MES-1; first compound 2 µM): 0.388
- relative viability (SK-MES-1; first compound 6.325 µM): 0.283
- relative viability (SK-MES-1; first compound 20 µM): 0.252
- relative viability (SK-LU-1; first compound 0.2 µM): 0.636
- relative viability (SK-LU-1; first compound 0.6325 µM): 0.594
- relative viability (SK-LU-1; first compound 2 µM): 0.625
- relative viability (SK-LU-1; first compound 6.325 µM): 0.466
- relative viability (SK-LU-1; first compound 20 µM): 0.354
- relative viability (HCC-366; first compound 0.2 µM): 0.166
- relative viability (HCC-366; first compound 0.6325 µM): 0.153
- relative viability (HCC-366; first compound 2 µM): 0.122
- relative viability (HCC-366; first compound 6.325 µM): 0.183
- relative viability (HCC-366; first compound 20 µM): 0.0561
- relative viability (NCI-H2228; first compound 0.2 µM): 0.435
- relative viability (NCI-H2228; first compound 0.6325 µM): 0.316
- relative viability (NCI-H2228; first compound 2 µM): 0.4
- relative viability (NCI-H2228; first compound 6.325 µM): 0.244
- relative viability (NCI-H2228; first compound 20 µM): 0.158
- relative viability (NCI-H2347; first compound 0.2 µM): 0.885
- relative viability (NCI-H2347; first compound 0.6325 µM): 0.733
- relative viability (NCI-H2347; first compound 2 µM): 0.72
- relative viability (NCI-H2347; first compound 6.325 µM): 0.619
- relative viability (NCI-H2347; first compound 20 µM): 0.359
- relative viability (NCI-H2170; first compound 0.2 µM): 0.394
- relative viability (NCI-H2170; first compound 0.6325 µM): 0.28
- relative viability (NCI-H2170; first compound 2 µM): 0.321
- relative viability (NCI-H2170; first compound 6.325 µM): 0.272
- relative viability (NCI-H2170; first compound 20 µM): 0.238
- relative viability (NCI-H650; first compound 0.2 µM): 0.988
- relative viability (NCI-H650; first compound 0.6325 µM): 0.944
- relative viability (NCI-H650; first compound 2 µM): 0.987
- relative viability (NCI-H650; first compound 6.325 µM): 0.975
- relative viability (NCI-H650; first compound 20 µM): 0.505
- relative viability (RERF-LC-KJ; first compound 0.2 µM): 0.504
- relative viability (RERF-LC-KJ; first compound 0.6325 µM): 0.488
- relative viability (RERF-LC-KJ; first compound 2 µM): 0.484
- relative viability (RERF-LC-KJ; first compound 6.325 µM): 0.415
- relative viability (RERF-LC-KJ; first compound 20 µM): 0.225
- relative viability (NCI-H1915; first compound 0.2 µM): 1
- relative viability (NCI-H1915; first compound 0.6325 µM): 0.606
- relative viability (NCI-H1915; first compound 2 µM): 0.883
- relative viability (NCI-H1915; first compound 6.325 µM): 0.708
- relative viability (NCI-H1915; first compound 20 µM): 0.477
- relative viability (LC-2-ad; first compound 0.2 µM): 0.437
- relative viability (LC-2-ad; first compound 0.6325 µM): 0.373
- relative viability (LC-2-ad; first compound 2 µM): 0.508
- relative viability (LC-2-ad; first compound 6.325 µM): 0.406
- relative viability (LC-2-ad; first compound 20 µM): 0.12
- relative viability (NCI-H1975; first compound 0.2 µM): 0.275
- relative viability (NCI-H1975; first compound 0.6325 µM): 0.312
- relative viability (NCI-H1975; first compound 2 µM): 0.251
- relative viability (NCI-H1975; first compound 6.325 µM): 0.209
- relative viability (NCI-H1975; first compound 20 µM): 0.312
- relative viability (LCLC-103H; first compound 0.2 µM): 0.721
- relative viability (LCLC-103H; first compound 0.6325 µM): 0.574
- relative viability (LCLC-103H; first compound 2 µM): 0.608
- relative viability (LCLC-103H; first compound 6.325 µM): 0.631
- relative viability (LCLC-103H; first compound 20 µM): 0.59
- relative viability (A-427; first compound 0.2 µM): 0.659
- relative viability (A-427; first compound 0.6325 µM): 0.469
- relative viability (A-427; first compound 2 µM): 0.671
- relative viability (A-427; first compound 6.325 µM): 0.743
- relative viability (A-427; first compound 20 µM): 0.214
- relative viability (NCI-H23; first compound 0.2 µM): 0.563
- relative viability (NCI-H23; first compound 2 µM): 0.517
- relative viability (NCI-H23; first compound 6.325 µM): 0.467
- relative viability (NCI-H23; first compound 20 µM): 0.192
- relative viability (NCI-H1355; first compound 0.2 µM): 0.402
- relative viability (NCI-H1355; first compound 0.6325 µM): 0.392
- relative viability (NCI-H1355; first compound 2 µM): 0.435
- relative viability (NCI-H1355; first compound 6.325 µM): 0.376
- relative viability (NCI-H1355; first compound 20 µM): 0.234
- relative viability (SW 1573; first compound 0.2 µM): 0.478
- relative viability (SW 1573; first compound 0.6325 µM): 0.508
- relative viability (SW 1573; first compound 2 µM): 0.592
- relative viability (SW 1573; first compound 6.325 µM): 0.461
- relative viability (SW 1573; first compound 20 µM): 0.35
- relative viability (NCI-H1755; first compound 0.2 µM): 0.465
- relative viability (NCI-H1755; first compound 0.6325 µM): 0.372
- relative viability (NCI-H1755; first compound 2 µM): 0.42
- relative viability (NCI-H1755; first compound 6.325 µM): 0.37
- relative viability (NCI-H1755; first compound 20 µM): 0.179
- relative viability (UMC-11; first compound 0.2 µM): 0.753
- relative viability (UMC-11; first compound 0.6325 µM): 0.203
- relative viability (UMC-11; first compound 2 µM): 0.853
- relative viability (UMC-11; first compound 6.325 µM): 0.687
- relative viability (UMC-11; first compound 20 µM): 0.17
- relative viability (HCC-827; first compound 0.2 µM): 0.985
- relative viability (HCC-827; first compound 0.6325 µM): 0.936
- relative viability (HCC-827; first compound 2 µM): 0.947
- relative viability (HCC-827; first compound 6.325 µM): 0.618
- relative viability (HCC-827; first compound 20 µM): 0.664
- relative viability (NCI-H1734; first compound 0.2 µM): 0.501
- relative viability (NCI-H1734; first compound 0.6325 µM): 0.408
- relative viability (NCI-H1734; first compound 2 µM): 0.442
- relative viability (NCI-H1734; first compound 6.325 µM): 0.351
- relative viability (NCI-H1734; first compound 20 µM): 0.266
- relative viability (NCI-H1993; first compound 0.2 µM): 0.829
- relative viability (NCI-H1993; first compound 0.6325 µM): 0.92
- relative viability (NCI-H1993; first compound 2 µM): 0.827
- relative viability (NCI-H1993; first compound 6.325 µM): 0.776
- relative viability (NCI-H1993; first compound 20 µM): 0.764
- relative viability (NCI-H1792; first compound 0.2 µM): 0.296
- relative viability (NCI-H1792; first compound 0.6325 µM): 0.293
- relative viability (NCI-H1792; first compound 2 µM): 0.26
- relative viability (NCI-H1792; first compound 6.325 µM): 0.252
- relative viability (NCI-H1792; first compound 20 µM): 0.221
